Residues, ends and D or L forms follow the SMILES beside them.
System: Male rats
Experiment: Sleep-wake cycle analysis by telemetric EEG recording (23 hours) in rats
Assay type: in vivo, rat
Details: for latency to SWS onset (change): FIG. 1A; for latency to REM sleep onset (change): FIG. 1B
Protocol: Male rats were anesthetized and surgically implanted with 2 surface electrodes in the frontoparietal cortex and 2 depth electrodes in the CA1 region of the hippocampus (AP+5.0 mm, L±2.5 mm, V+7.0 mm). After ≥10 days recovery, telemetric transmitters were connected to electrodes for electroencephalographic (EEG) recordings. On the day of experiment, rats were injected at the beginning of the light phase with rapastinel (3, 10, or 30 mg/kg, IV), ketamine (30 mg/kg, IP), or the positive control zolpidem (12 mg/kg, PO) using a treatment schedule based on a cross-over design (n=9-10/dose/group) in which rats received zolpidem or rapastinel at session 1 and then rapastinel and/or ketamine at sessions 2-4. Physiological saline was used as the vehicle control
Sleep-wake cycles were measured continuously following rapastinel treatment for the next 23 hours and were analyzed based on a spectral power analysis. Latencies to first occurrence of SWS and REM sleep, as well as percent time spent in SWS, REM sleep, and wakefulness, were calculated for the total recording sessions (23 hours), the half cycles (0-12 and 12-23 hours), and 5 time segments (0-4, 4-8, 8-12, 12-18, and 18-23 hours). Depth of SWS (defined as the ratio between alpha and delta spectral power) was also calculated. Differences between vehicle and test drugs were calculated for all variables, for each animal, and for the means of the animals per treatment group, and analyzed using a paired t-test

[1] = ketamine 30 mg/kg IP, 12-23 hours post-dose, P<0.05
[2] = rapastinel, entire recording session, FIG. 2

`CNC1(c2ccccc2Cl)CCCCC1=O` (centres unmarked) [Ketamine, ketamine] was tested, and the “alpha/delta ratio (depth of SWS)” value (ketamine 30 mg/kg IP, 0-4 hours post-dose) was “concomitant decrease”, the “duration of SWS” value (ketamine 30 mg/kg IP, 0-4 hours post-dose, FIG. 2A) was “decreased” and the “duration of REM sleep” value (ketamine 30 mg/kg IP, 0-4 hours post-dose, P<0.001) was “decreased”. For the same molecule, the “waking (duration)” value (ketamine 30 mg/kg IP, 12-23 hours post-dose, P<0.01) was “small but significant decrease”, the “REM sleep (duration)” value [1] was “compensatory increase” and the SWS duration [1] was “significantly increased”. The “percentage of active waking” value [1] was “significantly decreased”, the “latency to SWS onset (change)” value (ketamine 30 mg/kg IP, P<0.001) was “+393%” and the “latency to REM sleep onset (change)” value (ketamine 30 mg/kg IP, P<0.001) was “+104%”. The duration of waking (ketamine 30 mg/kg IP, first 4 hours post-dose, P<0.001) was “significantly increased”.
For `Cc1ccc(-c2nc3ccc(C)cn3c2CC(=O)N(C)C)cc1` [Zolpidem, zolpidem], the “percentage of active waking” value (zolpidem 12 mg/kg PO, 0-12 hours post-dose, P<0.05) was “significantly decreased”, the “duration of REM sleep” value (zolpidem 12 mg/kg PO, 4-8 hours post-dose, P<0.05) was “significantly decreased” and the “depth of SWS” value (zolpidem 12 mg/kg PO, >8 hours post-dose, P<0.05, FIG. 2B) was “significantly increased”. The duration of waking (zolpidem 12 mg/kg PO, FIG. 4A) was “no effect”, the “latency to REM sleep onset (change)” value (zolpidem 12 mg/kg PO, P<0.01) was “+67%” and the “latency to SWS onset (change)” value (zolpidem 12 mg/kg PO, P<0.05) was −50%.
`C[C@@H](O)[C@H](N)C(=O)N1CCC[C@H]1C(=O)N1CCC[C@H]1C(=O)N[C@H](C(N)=O)[C@@H](C)O` [Rapastinel, rapastinel] (H-TPPT-NH2) was tested, and the “latency to SWS onset (change)” value (rapastinel 3 mg/kg IV, P<0.05) was −33%, the “percentage of active waking” value (rapastinel 30 mg/kg IV, 8-12 hours post-dose, P<0.01) was “small but significant decrease” and the “percentage of active waking” value (rapastinel 30 mg/kg IV, 18-23 hours post-dose, P<0.05) was “small but significant decrease”. The “latency to REM sleep onset” value (rapastinel 3, 10, and 30 mg/kg IV) was “no significant effect”, the “duration of REM sleep” value (rapastinel 3, 10, and 30 mg/kg IV, FIG. 3) was “did not have a significant effect” and the duration of waking (rapastinel 3, 10, or 30 mg/kg IV, FIG. 4A) was “no effect”. For the same molecule, the “latency to SWS onset” value (rapastinel 10 and 30 mg/kg IV) was “no significant effect”, the “percentage of active waking” value (rapastinel, all doses and time segments other than the 30 mg/kg exceptions, FIG. 4B) was “no effect” and the “depth of SWS” value [2] was “no significant effect”. The “duration of SWS” value [2] was “no significant effect”.

From patent publication US20200197365A1, “TREATMENT WITH NMDA RECEPTOR MODULATORS” (Naurex Inc., priority 2017, published 2020)
